# In paper PMC3944410 (Anesthesiology, 2014):
# pIC50: −log10 of the molar value. Several values for one entry are separate records, joined by “and”; a condition that tells them apart may be missing. Identical values can stand only once.
# How the values were obtained:
# [1] = biological target: recombinant human kappa opioid receptor (Homo sapiens, UniProt P41145); assay: biochemical; conditions: IC50 of inhibition of agonist-induced G protein activation
# [2] = 10 mg of dezocine, postoperative patients (n=187); cited from earlier work
# [3] = cited from earlier work
# Chain of recombinant human kappa opioid receptor (P41145 whole entry): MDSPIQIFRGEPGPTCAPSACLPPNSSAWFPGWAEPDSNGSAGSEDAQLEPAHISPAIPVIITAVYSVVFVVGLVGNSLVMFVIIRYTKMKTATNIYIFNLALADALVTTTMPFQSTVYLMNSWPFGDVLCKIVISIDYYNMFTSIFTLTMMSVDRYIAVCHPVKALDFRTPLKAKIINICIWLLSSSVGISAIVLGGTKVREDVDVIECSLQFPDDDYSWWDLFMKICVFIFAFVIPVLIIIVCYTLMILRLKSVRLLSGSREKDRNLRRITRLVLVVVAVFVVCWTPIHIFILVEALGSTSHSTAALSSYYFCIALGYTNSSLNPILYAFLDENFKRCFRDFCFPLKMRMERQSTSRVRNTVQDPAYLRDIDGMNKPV
smiles,measurement,setting,value
C[C@@]12CCCCC[C@@H](Cc3ccc(O)cc31)[C@@H]2N [dezocine],pIC50,[1],~6.46 and ~6.10
same,analgesic activity compared with meperidine,[2],same analgesic activity as 50 mg of meperidine
same,decrease of anesthetic requirement,[3],up to 50%
